Laboratory results as given in the supplement of paper PMC10307832.

How the values were obtained:
Test in all cases: relative viability (nuclei count vs DMSO), 5 days (fraction); higher = more cells survive
[1] = compound: COc1cc(N2CCC(N3CCN(C)CC3)CC2)ccc1Nc1ncc(Cl)c(Nc2ccccc2S(=O)(=O)C(C)C)n1 [NVP-TAE684] + Nc1ncn([C@H]2C[C@H](O)[C@@H](CO)O2)c(=O)n1 [Decitabine] (partner 2 µM)
Summary of the method: (§1)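 Lung cancer cell lines were seeded in 1536-well plates and dosed by pin tool the next day, with either a single drug or a fixed anchor-drug dose combined with five library-drug doses (not always all listed) spaced in √10 steps. Five days later, one step fixed the cells and stained their nuclei (final 0.05% Triton X-100, 1% formaldehyde, 1 ug/ml Hoechst), and nuclei were counted on 4× images. Relative viability is the nuclei count in treated wells divided by the count in vehicle wells, and each value is the median of duplicate plates.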

[2] = compound: C1=CC=C2C(=C1)N=C(S2)C(C#N)C3=NC(=NC=C3)NCCC4=CN=CC=C4 + Nc1ncn([C@H]2C[C@H](O)[C@@H](CO)O2)c(=O)n1 [Decitabine] (partner 2 µM)
Summary of the method: as §1

[3] = compound: C#Cc1cccc(Nc2ncnc3cc(OC)c(OCCCCCCC(=O)NO)cc23)c1 [CUDC-101] + CS(=O)(=O)CCNCc1ccc(-c2ccc3ncnc(Nc4ccc(OCc5cccc(F)c5)c(Cl)c4)c3c2)o1 [Lapatinib] (partner 2 µM)
Summary of the method: as §1

[4] = compound: C1=CC=C2C(=C1)N=C(S2)C(C#N)C3=NC(=NC=C3)NCCC4=CN=CC=C4 + Cc1nc(NC(=O)N2CCC[C@H]2C(N)=O)sc1-c1ccnc(C(C)(C)C(F)(F)F)c1 [Alpelisib] (partner 2 µM)
Summary of the method: as §1

Cell Line	relative viability ([1]; first compound 0.2 µM)	relative viability ([1]; first compound 0.6325 µM)	relative viability ([1]; first compound 2 µM)	relative viability ([2]; first compound 0.005 µM)	relative viability ([2]; first compound 0.01581 µM)	relative viability ([2]; first compound 0.05 µM)	relative viability ([2]; first compound 0.1581 µM)	relative viability ([2]; first compound 0.5 µM)	relative viability ([3]; first compound 0.01 µM)	relative viability ([3]; first compound 0.03162 µM)	relative viability ([3]; first compound 0.1 µM)	relative viability ([3]; first compound 0.3162 µM)	relative viability ([3]; first compound 1 µM)	relative viability ([4]; first compound 0.005 µM)	relative viability ([4]; first compound 0.01581 µM)	relative viability ([4]; first compound 0.05 µM)	relative viability ([4]; first compound 0.1581 µM)	relative viability ([4]; first compound 0.5 µM)
NCI-H2405	0.684	0.683	0.397	0.658	0.771	0.737	0.689	0.725	1.25	1.05	1.19	1.27	0.917	0.75	0.784	0.734	0.731	0.839
NCI-H2087	0.305	0.261	0.192	0.255	0.266	0.345	0.367	0.282	0.986	1.37	1.04	1.04	0.761	1.06	1.14	0.979	1.14	1.05
NCI-H2023	0.238	0.199	0.0999	0.245	0.236	0.209	0.245	0.243	0.991	0.813	1.04	0.936	0.402	0.625	0.659	0.649	0.681	0.404
NCI-H3122	0.152	0.109	0.103	0.333	0.394	0.492	0.577	0.441	1.07	0.984	0.882	1.02	1.01	0.676	0.791	0.819	0.977	0.852
ChaGo-K-1	0.536	0.52	0.427	0.488	0.53	0.518	0.542	0.511	–	–	–	–	–	–	–	–	–	–
NCI-H2347	0.602	0.679	0.571	0.638	0.634	0.556	0.683	0.654	1.08	0.918	1.03	1.05	0.91	1.1	0.992	0.954	1.05	1.18
NCI-H460	0.535	0.51	0.294	–	0.612	0.529	0.592	0.464	1.04	0.994	0.873	0.919	0.339	–	0.508	0.503	0.579	0.309
HCC-827	0.301	0.279	0.311	0.318	0.322	0.319	0.399	0.328	0.206	0.181	0.178	0.174	0.218	0.962	1.01	0.943	1.15	1.02
HOP-62	0.242	0.236	0.266	0.219	0.184	0.263	0.234	0.248	1.03	0.909	1.05	0.768	0.821	0.966	1.34	1.09	1.3	1.21
NCI-H1792	0.359	0.558	0.309	–	0.736	0.638	0.675	0.388	0.91	0.883	0.877	0.913	0.825	–	0.817	0.696	0.891	0.517
HCC-15	0.582	0.524	0.484	0.568	0.608	0.644	0.66	0.564	0.857	0.908	0.831	0.845	0.698	0.927	0.833	0.905	0.954	0.853
NCI-H1755	0.715	0.756	0.667	0.673	0.789	0.683	0.75	0.7	1.09	1.04	1.02	1.1	0.798	0.839	1	0.959	1.03	0.849
NCI-H23	0.31	0.322	0.241	–	0.306	0.329	0.323	0.338	1.08	0.963	1.19	0.918	0.559	–	0.74	0.582	0.845	0.725
BEN	–	0.622	0.643	0.654	0.666	0.664	0.863	0.811	0.925	0.628	0.707	0.739	0.539	0.763	1.1	0.931	0.99	0.932
NCI-H1651	0.614	0.566	0.502	0.546	0.557	0.684	0.711	0.603	0.869	0.813	0.884	0.771	0.325	0.667	1.07	1.12	1.11	0.73
NCI-H2126	0.56	0.603	0.459	0.495	0.579	0.565	0.546	0.577	0.764	0.785	0.758	0.803	0.635	0.722	0.734	0.773	0.765	0.793
